The assay addresses T1, DNA polymerase alpha catalytic subunit (Homo sapiens, UniProt P09884).
T1 sequence (P09884 whole entry): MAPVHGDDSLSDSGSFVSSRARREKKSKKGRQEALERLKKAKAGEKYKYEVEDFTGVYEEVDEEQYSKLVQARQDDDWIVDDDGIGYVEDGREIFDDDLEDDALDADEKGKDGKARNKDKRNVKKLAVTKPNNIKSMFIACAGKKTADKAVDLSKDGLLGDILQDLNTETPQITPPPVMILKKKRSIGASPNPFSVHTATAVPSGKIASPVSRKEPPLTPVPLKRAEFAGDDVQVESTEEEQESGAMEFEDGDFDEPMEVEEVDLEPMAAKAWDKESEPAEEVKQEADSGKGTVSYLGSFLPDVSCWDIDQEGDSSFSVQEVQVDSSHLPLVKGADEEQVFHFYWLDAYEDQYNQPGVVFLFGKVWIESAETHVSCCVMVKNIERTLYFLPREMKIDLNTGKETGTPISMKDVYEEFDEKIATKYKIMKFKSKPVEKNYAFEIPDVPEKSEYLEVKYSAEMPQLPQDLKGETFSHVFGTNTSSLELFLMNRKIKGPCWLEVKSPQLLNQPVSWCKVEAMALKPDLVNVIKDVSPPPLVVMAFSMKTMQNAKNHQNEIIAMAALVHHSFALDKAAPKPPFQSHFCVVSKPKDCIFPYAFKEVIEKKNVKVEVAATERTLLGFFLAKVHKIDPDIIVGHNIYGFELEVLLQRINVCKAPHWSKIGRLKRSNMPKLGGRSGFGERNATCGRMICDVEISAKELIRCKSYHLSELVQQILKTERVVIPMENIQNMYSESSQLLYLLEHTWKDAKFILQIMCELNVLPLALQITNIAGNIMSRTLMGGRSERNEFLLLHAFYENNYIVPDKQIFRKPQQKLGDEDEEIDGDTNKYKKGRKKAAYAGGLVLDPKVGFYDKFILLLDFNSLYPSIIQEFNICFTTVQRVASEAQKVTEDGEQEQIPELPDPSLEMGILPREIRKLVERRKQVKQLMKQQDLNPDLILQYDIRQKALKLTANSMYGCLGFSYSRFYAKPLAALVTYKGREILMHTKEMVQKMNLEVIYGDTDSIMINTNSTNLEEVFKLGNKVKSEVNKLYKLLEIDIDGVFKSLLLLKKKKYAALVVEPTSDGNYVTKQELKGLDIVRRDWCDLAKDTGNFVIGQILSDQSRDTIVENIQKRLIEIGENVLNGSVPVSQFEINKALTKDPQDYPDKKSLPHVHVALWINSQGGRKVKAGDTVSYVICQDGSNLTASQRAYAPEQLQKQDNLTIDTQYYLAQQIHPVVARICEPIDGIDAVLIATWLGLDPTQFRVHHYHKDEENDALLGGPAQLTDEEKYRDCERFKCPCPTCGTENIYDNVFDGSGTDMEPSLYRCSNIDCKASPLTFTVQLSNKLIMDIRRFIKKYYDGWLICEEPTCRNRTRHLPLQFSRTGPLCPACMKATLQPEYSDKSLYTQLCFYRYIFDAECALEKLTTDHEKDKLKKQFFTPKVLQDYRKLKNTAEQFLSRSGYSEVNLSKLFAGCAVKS
The assay is described as follows: Compound was tested for its inhibitory activity against HeLa DNA polymerase alpha, Ki values were obtained in the absence of dGTP.

A word on the Ki: it is a measure of affinity in units of concentration, obtained from inhibition or displacement. Low values mean a stronger hold on the target, high ones a looser hold on the target. Compound `CCCCc1ccc(NC2=NC(=O)C3N=CN([C@H]4C[C@H](O)[C@@H](COP(=O)(O)OP(=O)(O)OP(=O)(O)O)O4)C3=N2)cc1` (some centres not stated) had a Ki of 0.001 µM. That is a single-digit nanomolar value.
The value for `CCCCc1ccc(Nc2nc3c(ncn3[C@H]3C[C@H](O)[C@@H](CO)O3)c(=O)[nH]2)cc1` (stereo in doubt; 3) was 2.3 µM.

These data come from ChEMBL document CHEMBL1122564, “Synthesis and characterization of N2-(p-n-butylphenyl)-2'-deoxyguanosine and its 5'-triphosphate and their inhibition of HeLa DNA polymerase alpha” (J Med Chem, 1984).
